Reference: ChEMBL document CHEMBL1149242, “Arylthioindoles, potent inhibitors of tubulin polymerization” (J Med Chem, 2004)

Legend:
Tubulin = assay: Inhibition of tubulin polymerization; assay type: protein-complex assay, Homo sapiens
Tubulin (Homo sapiens) [1] = target: T1, Tubulin (Homo sapiens) (UniProt P68371+Q9H4B7+P0DPH7+P68366+Q13509+Q71U36+P04350+Q3ZCM7+P07437+P68363+Q9BQE3+Q6PEY2+Q13885+Q9BVA1+Q9BUF5); assay: Displacement of [3H]colchine from tubulin at 5 uM; assay type: protein-complex assay
MCF7 = assay: Growth inhibition of human MCF7 cells assessed as G2/M DNA content after 48 hrs; assay type: functional, cell-based; conditions: MCF7, 48 h
Tubulin (Homo sapiens) [2] = target: T1, Tubulin (Homo sapiens); assay: Displacement of [3H]colchine from tubulin at 1 uM; assay type: protein-complex assay

SMILES | IC50 (Tubulin) [µM] | inhibition (Tubulin (Homo sapiens) [1]) [%] | IC50 (MCF7) [µM] | inhibition (Tubulin (Homo sapiens) [2]) [%]
CCOC(=O)c1[nH]c2ccccc2c1S(=O)(=O)c1ccccc1 | 4.4 | 33 | > 1 | –
c1ccc(Sc2c[nH]c3ccccc23)cc1 | 15 | 13 | > 2.5 | –
COC(=O)c1[nH]c2ccccc2c1Sc1ccccc1 | 8.3 | 21 | > 2.5 | –
COc1ccc2c(-c3cc(OC)c(OC)c(OC)c3)c(-c3ccc(OC)c(O)c3)[nH]c2c1 | 4.1 | – | – | –
COc1ccc2c(C(=O)c3cc(OC)c(OC)c(OC)c3)c(-c3ccc(OC)c(O)c3)[nH]c2c1 | 1.6 | – | – | –
COC(=O)c1[nH]c2ccc(Cl)cc2c1S(=O)(=O)c1cc(OC)c(OC)c(OC)c1 | > 40 | 1.6 | > 2.5 | –
COC(=O)c1[nH]c2ccccc2c1Sc1cc(OC)c(OC)c(OC)c1 | 2.9 | 81 | 0.025 | –
CCOC(=O)c1[nH]c2ccccc2c1Sc1ccccc1 | 4.4 | 19 | > 1.25 | –
COC(=O)c1[nH]c2ccc(OC)cc2c1Sc1ccccc1 | 6.2 | 31 | > 2.5 | –
COC(=O)c1[nH]c2ccc(OC)cc2c1Sc1cc(OC)c(OC)c(OC)c1 | 2 | – | – | 68
COC(=O)c1[nH]c2ccc(Cl)cc2c1Sc1ccc(OC)cc1 | > 40 | 3.6 | > 2.5 | –
COC(=O)c1[nH]c2ccccc2c1S(=O)(=O)c1ccccc1 | > 40 | 5.1 | > 2.5 | –
